Assay [1] addresses TNFα (Homo sapiens, UniProt P01375). In words: Fluorescence probed thermal denaturation assay (Thermofluor) of TNFα. In kind it is binding. Conditions: TNFα + 5% DMSO + compound. As for the experimental part: A fluorescence probed thermal denaturation assay was performed to assess the effect of the compounds on the thermal stability of TNFα as a measure of compound binding. The reaction mix contained 5 μl of 30×SYPRO® Orange dye (Invitrogen) and 5 μl of TNFα (at 1.0 mg/ml), 37.5 μl PBS, pH 7.4 and 2.5 μl of compound (at 2 mM in DMSO). 10 μl of the mix was dispensed in quadruplicate into a 384 PCR optical well plate and was run on a 7900HT Fast Real-Time PCR System […]. PCR
System heating device was set at 20° C. to 99° C. with a ramp rate of 1.1° C./min; fluorescence changes in the wells were monitored by a Charge-coupled device (CCD). The fluorescence intensity increase was plotted as a function of temperature and the Tm calculated as the midpoint of this denaturation curve (determined as the point of inflection) (Table 1).
Thermofluor measures the change of melting temperature (Tm) of TNFα due to compound either stabilising or disrupting the protein.
(In general: Differential scanning fluorimetry follows unfolding on heating by fluorescence.)

The target of assay [2] is T1, human TNFα trimer (Homo sapiens, UniProt P01375).
T1 construct: His6Smt-tag (N, cleaved yes); made in house; host or cells: E. coli (vector pEMB54)
In words: RMSD of crystal structure of compound-bound TNFα trimer to Reference Structure Compound 34. As to conditions: Cα atoms of β-sheet residues, all three subunits, PyMOL. The protocol: Cells were pre-cultured at 37° C. in rich media, induced with the addition of 0.1% arabinose and allowed to express overnight at 25° C. in vector pEMB54. This vector introduces a cleavable N-terminal His6Smt-tag. The cells were lysed and purified by Ni-NTA chelate chromatography. The fusion protein was eluted with buffer containing imidazole and cleaved by the addition of protease. The final cleaved TNFα protein was purified by a subtractive Ni chelate chromatography step to remove the fusion tag and further purified by size exclusion chromatography to remove the remaining impurities. The final TNFα product was typically concentrated to 20.0 mg/ml and flash frozen in liquid nitrogen.
Purified human TNF[…] (20.0 mg/ml, VC 2043) was diluted to 4-7 mg/ml in 10 mM HEPES pH 7.5, 150 mM NaCl buffer followed by overnight incubation at 4° C. with 0.3-0.5 mM compound (1-2 molar excess). The TNF[…] compound complexes were crystallized by sitting drop vapor diffusion by mixing 0.5 μl of complex with 0.5 μl of 21.44% PEG 3350, 100 mM Tris, pH 9.0 (UCB1474433); or 22.0% PEG 3350, 100 mM glycine, 100 mM Tris, pH 8.5 (UCB1480595); or 25.6% PEG 3350, 100 mM Tris, pH 8.3, 3% xylitol (UCB5143079) or other formulation with varying precipitant concentration or additives over 100 μl of the same crystallization solution. Other formulations for other compounds include a range of PEG 3350 of 8-28%. Other PEG-like additives include PEG 1000 (8-18%) or PEG 2000 (10-13%). Other additives include MPD (5-13%) or 200 mM NaCl. Other buffers include 100 mM Hepes (pH 7-8), 100 mM Tris or bis-Tris (pH 6.7-9.0). Other non-PEG 3350 crystallization solutions consist of PEG 2000 (14-19%), 100 mM Hepes, pH 8, 25 mM arginine; or 17% PEG 10000, 200 mM ammonium acetate, 100 mM bis-Tris, pH 5.5; or 30% PEG 2000 MME, 100 mM sodium acetate, 100 mM Mes, pH 6.5.
Crystals were briefly soaked in ethylene glycol and/or vitrified directly in liquid nitrogen for data collection.
X-ray diffraction data were collected from a synchrotron source at a wavelength, most frequently, of 0.976484 Å and recorded on CCD detector. […] The structure of the human TNF[…] (VC 2043) complexed with compound was solved by molecular replacement using Phaser with input model of 1TNF. […] Iterative manual model building using Coot (Emsley and Cowtan, 2004) and Refmac (Murshudov et al., 1997) continued until R and Rfree converged. […] The resolution of the structures was most frequently around 2.15 Å.
Root mean squared deviation (RMSD) calculations were carried out to ascertain the distance of each of the crystal structures of distorted TNFα trimer to a reference structure.
RMSD calculations were done using the program PyMOL (www.pymol.org). In this example version 1.7. was used. The cmd.rms PyMOL command was used with defined pairs of atoms. The atoms used were the backbone Ca's of certain residues within the β-strands of TNFα. The residue numbers used are shown below:
These residue numbers are those within the published structure of TNFα with PDB code 1A8M and within the distorted TNFα trimer structures of this invention. The residue numbers are also according to the sequence of SEQ ID NO:36. The residues in each of the three chains with the TNFα structures, (labelled A, B, and C according to our instructions) were used.
The command cmd.rms was used with the following arguments:
rms=cmd.rms(“(moving)”, “(target)”, matchmaker=4, quiet=0, cycles=0)
where “(moving)” is the selection of atoms in a given TNFα structure and “(target)” is the selection of equivalent atoms within the reference structure.
The RMSD was calculated for each structure against all others. The “representative structure” or “Reference Structure” was chosen to be the one with the lowest sum RMSD to all others—the structure “Compound 34” or “Compound34.pdb”.
Reference Structure (Compound 34) and Query Structure (Compound 64) were overlaid (see FIG. 17 with Reference Structure emboldened) by: • 1. […]

Sequence of TNFα (P01375 77-233 limits assumed): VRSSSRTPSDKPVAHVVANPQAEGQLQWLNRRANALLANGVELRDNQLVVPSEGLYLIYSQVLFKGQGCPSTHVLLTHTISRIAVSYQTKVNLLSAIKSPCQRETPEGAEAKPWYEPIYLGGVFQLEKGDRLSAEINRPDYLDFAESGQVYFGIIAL
T1 sequence (P01375 with tags, fused parts or gaps): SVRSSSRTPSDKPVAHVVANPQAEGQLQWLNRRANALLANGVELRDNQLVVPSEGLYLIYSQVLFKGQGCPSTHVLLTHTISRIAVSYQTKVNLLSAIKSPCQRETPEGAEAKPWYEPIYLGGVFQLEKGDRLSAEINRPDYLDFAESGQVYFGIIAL

With `Cc1ccc(C)c(Cn2c(C(O)c3ccncc3)nc3ccccc32)c1` (stereo not drawn) [Compound 3], in assay [1], the “Tm (° C.) (mean ± sd)” value is 73.2 ± 0.6 (n = 4) ° C and the “Tm difference (= (TNF + cpd) - (TNF + DMSO))” value was 11.8 °C. In addition, the “RMSD (Å) with Compound 34” value in assay [2] is recorded as 0.33 Å.

`Cc1ccc(C)c(Cn2c(C(O)c3ccncc3)nc3ccc(-c4cnn(C)c4)cc32)c1` (stereo not drawn) [Compound 15]: in assay [1], the “Tm (° C.) (mean ± sd)” value is recorded as 78.5 ± 1.1 (n = 4) ° C and the “Tm difference (= (TNF + cpd) - (TNF + DMSO))” value came to 17.1 °C. For the same compound, the “RMSD (Å) with Compound 34” value in assay [2] amounted to 0.24 Å.

Source of the values: patent US11674967B2, “Method of identifying potential inhibitors of APO TNFα trimers” (UCB BIOPHARMA SRL, priority 2015, dated 2023).
